From patent US20060069132A1, “Azolecarboxamide herbicides” (priority 2004, published 2006)

What was measured:
morningglory = assay: Test B pre-/postemergence herbicide test; assay type: in vivo, Ipomoea coccinea; details: for Plant response rating, Morningglory: preemergence; for Morningglory plant response rating: postemergence, visual rating, scale 0 (no effect) to 100 (complete control)
Procedure, shortened: (§1)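 Flooded paddy rice and barnyardgrass were treated at the 2-leaf stage; upland plantings received compound either on sown seed or on 1- to 4-leaf seedlings. All were kept 13–15 days in a greenhouse and scored visually, 0–100, relative to untreated plants.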

cocklebur = assay: Test B pre-/postemergence herbicide test; assay type: in vivo, Xanthium strumarium; details: for Plant response rating, Cocklebur: preemergence; for Cocklebur plant response rating: postemergence, visual rating, scale 0 (no effect) to 100 (complete control)
Procedure, shortened: as §1

corn = assay: Test B pre-/postemergence herbicide test; assay type: in vivo, Zea mays; details: for Plant response rating, Corn: preemergence; for Corn plant response rating: postemergence, visual rating, scale 0 (no effect) to 100 (complete control)
Procedure, shortened: (§2)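 Visual rating, 0 (no effect) to 100 (complete control), versus untreated controls after 13–15 d in greenhouse. Pre- and postemergence applications (postemergence plants 2–18 cm, 1–4 leaves); flooded paddy arm at 2-leaf stage. Compounds in non-phytotoxic solvent plus surfactant.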

ducksalad = assay: Test B flooded paddy test; assay type: in vivo, Heteranthera limosa; details: 1000 g ai/ha, visual rating, scale 0 to 100 (0 no effect, 100 complete control), 13 to 15 days
Procedure, shortened: (§3)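 After treating 2-leaf paddy plants or 2–18 cm postemergence plants (1 to 4 leaves) with formulated chemical, researchers kept them in a greenhouse for 13–15 days. Effects were judged visually versus controls: 0 indicates none, 100 total control.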

blackgrass = assay: Test B postemergence herbicide test; assay type: in vivo, Alopecurus myosuroides; details: postemergence, visual rating, scale 0 (no effect) to 100 (complete control)
Procedure, shortened: as §3

rice = assay: Test B flooded paddy test; assay type: in vivo, Oryza sativa; details: 1000 g ai/ha, visual rating, scale 0 to 100 (0 no effect, 100 complete control), 13 to 15 days
Procedure, shortened: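 Read-out: visual comparison with controls, scored 0 to 100, where 100 means complete control and 0 no effect. Formulated chemicals were applied postemergence to plants 2–18 cm tall (1- to 4-leaf), or to flooded-paddy plants at the 2-leaf stage, then held 13 to 15 days under glass.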

wild oat = assay: Test B postemergence herbicide test; assay type: in vivo, Avena fatua; details: postemergence, visual rating, scale 0 (no effect) to 100 (complete control)
Procedure, shortened: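 Treated at 2-leaf (paddy) or 1–4-leaf, 2–18 cm (postemergence); greenhouse 13–15 d; visual score vs control, 0 none to 100 complete control; dash = not tested.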

barnyardgrass [1] = assay: Test B pre-/postemergence herbicide test; assay type: in vivo, Echinochloa crus-galli; details: for Plant response rating, Barnyardgrass: preemergence; for Barnyardgrass plant response rating: postemergence, visual rating, scale 0 (no effect) to 100 (complete control)
Procedure, shortened: as §1

[2] = test system: small flower umbrella sedge; assay: Test B flooded paddy test; assay type: in vivo, Cyperus difformis; details: 1000 g ai/ha, visual rating, scale 0 to 100 (0 no effect, 100 complete control), 13 to 15 days
Procedure, shortened: as §3

giant foxtail = assay: Test B pre-/postemergence herbicide test; assay type: in vivo, Setaria faberi; details: for Plant response rating, Foxtail, Giant: preemergence; for Foxtail, Giant plant response rating: postemergence, visual rating, scale 0 (no effect) to 100 (complete control)
Procedure, shortened: as §2

large crabgrass = assay: Test B pre-/postemergence herbicide test; assay type: in vivo, Digitaria sanguinalis; details: for Plant response rating, Crabgrass, Large: preemergence; for Crabgrass, Large plant response rating: postemergence, visual rating, scale 0 (no effect) to 100 (complete control)
Procedure, shortened: as §2

barnyardgrass [3] = assay: Test B flooded paddy test; assay type: in vivo, Echinochloa crus-galli; details: 1000 g ai/ha, visual rating, scale 0 to 100 (0 no effect, 100 complete control), 13 to 15 days
Procedure, shortened: as §3

pigweed = assay: Test B pre-/postemergence herbicide test; assay type: in vivo, Amaranthus retroflexus; details: for Plant response rating, Pigweed: preemergence; for Pigweed plant response rating: postemergence, visual rating, scale 0 (no effect) to 100 (complete control)
Procedure, shortened: as §2

velvetleaf = assay: Test B pre-/postemergence herbicide test; assay type: in vivo, Abutilon theophrasti; details: for Plant response rating, Velvetleaf: preemergence; for Velvetleaf plant response rating: postemergence, visual rating, scale 0 (no effect) to 100 (complete control)
Procedure, shortened: as §2

lambsquarters = assay: Test B pre-/postemergence herbicide test; assay type: in vivo, Chenopodium album; details: for Plant response rating, Lambsquarters: preemergence; for Lambsquarters plant response rating: postemergence, visual rating, scale 0 (no effect) to 100 (complete control)
Procedure, shortened: as §2

[4] = 500 g ai/ha, visual rating 0-100, 0 no effect, 100 complete control
[5] = 125 g ai/ha, 0 to 100 scale, 0 is no effect, 100 is complete control

## CCN(CC)C(=O)c1cccc(NC(=O)c2cc(C(C)(C)C)nn2CC)n1 [Compound 145]
morningglory; [4]
  Plant response rating, Morningglory: 40
morningglory; 125 g ai/ha
  Morningglory plant response rating: 0
morningglory; 500 g ai/ha
  Morningglory plant response rating: 20
morningglory; [5]
  Plant response rating, Morningglory: 30
cocklebur; [4]
  Plant response rating, Cocklebur: 20
cocklebur; 125 g ai/ha
  Cocklebur plant response rating: 0
cocklebur; 500 g ai/ha
  Cocklebur plant response rating: 30
cocklebur; [5]
  Plant response rating, Cocklebur: 0
corn; [4]
  Plant response rating, Corn: 10
corn; 125 g ai/ha
  Corn plant response rating: 10
corn; 500 g ai/ha
  Corn plant response rating: 20
corn; [5]
  Plant response rating, Corn: 0
ducksalad
  Ducksalad plant response rating: 70
blackgrass; 125 g ai/ha
  Blackgrass plant response rating: 10
blackgrass; 500 g ai/ha
  Blackgrass plant response rating: 10
rice
  Rice plant response rating: 40
Wild oat; 125 g ai/ha
  Oat, Wild plant response rating: 10
Wild oat; 500 g ai/ha
  Oat, Wild plant response rating: 30
Barnyardgrass [1]; [4]
  Plant response rating, Barnyardgrass: 100
Barnyardgrass [1]; 125 g ai/ha
  Barnyardgrass plant response rating: 0
Barnyardgrass [1]; 500 g ai/ha
  Barnyardgrass plant response rating: 40
Barnyardgrass [1]; [5]
  Plant response rating, Barnyardgrass: 70
[2]
  Sedge, Umbrella plant response rating: 90
Giant foxtail; [4]
  Plant response rating, Foxtail, Giant: 100
Giant foxtail; 125 g ai/ha
  Foxtail, Giant plant response rating: 30
Giant foxtail; 500 g ai/ha
  Foxtail, Giant plant response rating: 40
Giant foxtail; [5]
  Plant response rating, Foxtail, Giant: 80
Large crabgrass; [4]
  Plant response rating, Crabgrass, Large: 100
Large crabgrass; 125 g ai/ha
  Crabgrass, Large plant response rating: 10
Large crabgrass; 500 g ai/ha
  Crabgrass, Large plant response rating: 10
Barnyardgrass [3]
  Barnyardgrass plant response rating: 70
pigweed; [4]
  Plant response rating, Pigweed: 100
pigweed; 125 g ai/ha
  Pigweed plant response rating: 90
pigweed; 500 g ai/ha
  Pigweed plant response rating: 100
pigweed; [5]
  Plant response rating, Pigweed: 100
velvetleaf; [4]
  Plant response rating, Velvetleaf: 100
velvetleaf; 125 g ai/ha
  Velvetleaf plant response rating: 50
velvetleaf; 500 g ai/ha
  Velvetleaf plant response rating: 60
velvetleaf; [5]
  Plant response rating, Velvetleaf: 80
lambsquarters; [4]
  Plant response rating, Lambsquarters: 100
lambsquarters; 125 g ai/ha
  Lambsquarters plant response rating: 60
lambsquarters; 500 g ai/ha
  Lambsquarters plant response rating: 70
lambsquarters; [5]
  Plant response rating, Lambsquarters: 80

## CCn1nc(C(C)(C)C)cc1C(=O)Nc1cccc(C(=O)NC2CC2)n1 [Compound 146]
morningglory; [4]
  Plant response rating, Morningglory: 10
morningglory; 125 g ai/ha
  Morningglory plant response rating: 0
morningglory; 500 g ai/ha
  Morningglory plant response rating: 20
morningglory; [5]
  Plant response rating, Morningglory: 0
cocklebur; [4]
  Plant response rating, Cocklebur: 0
cocklebur; 125 g ai/ha
  Cocklebur plant response rating: 20
cocklebur; 500 g ai/ha
  Cocklebur plant response rating: 80
cocklebur; [5]
  Plant response rating, Cocklebur: 0
corn; [4]
  Plant response rating, Corn: 0
corn; 125 g ai/ha
  Corn plant response rating: 10
corn; 500 g ai/ha
  Corn plant response rating: 30
corn; [5]
  Plant response rating, Corn: 0
ducksalad
  Ducksalad plant response rating: 80
blackgrass; 125 g ai/ha
  Blackgrass plant response rating: 10
blackgrass; 500 g ai/ha
  Blackgrass plant response rating: 20
rice
  Rice plant response rating: 40
Wild oat; 125 g ai/ha
  Oat, Wild plant response rating: 10
Wild oat; 500 g ai/ha
  Oat, Wild plant response rating: 20
Barnyardgrass [1]; [4]
  Plant response rating, Barnyardgrass: 90
Barnyardgrass [1]; 125 g ai/ha
  Barnyardgrass plant response rating: 20
Barnyardgrass [1]; 500 g ai/ha
  Barnyardgrass plant response rating: 60
Barnyardgrass [1]; [5]
  Plant response rating, Barnyardgrass: 40
[2]
  Sedge, Umbrella plant response rating: 90
Giant foxtail; [4]
  Plant response rating, Foxtail, Giant: 90
Giant foxtail; 125 g ai/ha
  Foxtail, Giant plant response rating: 20
Giant foxtail; 500 g ai/ha
  Foxtail, Giant plant response rating: 20
Giant foxtail; [5]
  Plant response rating, Foxtail, Giant: 10
Large crabgrass; [4]
  Plant response rating, Crabgrass, Large: 100
Large crabgrass; 125 g ai/ha
  Crabgrass, Large plant response rating: 10
Large crabgrass; 500 g ai/ha
  Crabgrass, Large plant response rating: 20
Large crabgrass; [5]
  Plant response rating, Crabgrass, Large: 10
Barnyardgrass [3]
  Barnyardgrass plant response rating: 60
pigweed; [4]
  Plant response rating, Pigweed: 100
pigweed; 125 g ai/ha
  Pigweed plant response rating: 80
pigweed; 500 g ai/ha
  Pigweed plant response rating: 90
pigweed; [5]
  Plant response rating, Pigweed: 100
velvetleaf; [4]
  Plant response rating, Velvetleaf: 90
velvetleaf; 125 g ai/ha
  Velvetleaf plant response rating: 50
velvetleaf; 500 g ai/ha
  Velvetleaf plant response rating: 60
velvetleaf; [5]
  Plant response rating, Velvetleaf: 20
lambsquarters; [4]
  Plant response rating, Lambsquarters: 100
lambsquarters; 125 g ai/ha
  Lambsquarters plant response rating: 80
lambsquarters; 500 g ai/ha
  Lambsquarters plant response rating: 90
lambsquarters; [5]
  Plant response rating, Lambsquarters: 80

## CCNC(=O)c1cc(C)nc(NC(=O)c2cc(C(C)(C)C)nn2CC)c1 [Compound 149]
morningglory; [4]
  Plant response rating, Morningglory: 40
morningglory; 125 g ai/ha
  Morningglory plant response rating: 20
morningglory; 500 g ai/ha
  Morningglory plant response rating: 40
morningglory; [5]
  Plant response rating, Morningglory: 20
cocklebur; [4]
  Plant response rating, Cocklebur: 0
cocklebur; 125 g ai/ha
  Cocklebur plant response rating: 20
cocklebur; 500 g ai/ha
  Cocklebur plant response rating: 100
cocklebur; [5]
  Plant response rating, Cocklebur: 0
corn; [4]
  Plant response rating, Corn: 50
corn; 125 g ai/ha
  Corn plant response rating: 10
corn; 500 g ai/ha
  Corn plant response rating: 30
corn; [5]
  Plant response rating, Corn: 10
ducksalad
  Ducksalad plant response rating: 90
blackgrass; 125 g ai/ha
  Blackgrass plant response rating: 10
blackgrass; 500 g ai/ha
  Blackgrass plant response rating: 40
rice
  Rice plant response rating: 50
Wild oat; 125 g ai/ha
  Oat, Wild plant response rating: 10
Wild oat; 500 g ai/ha
  Oat, Wild plant response rating: 30
Barnyardgrass [1]; [4]
  Plant response rating, Barnyardgrass: 90
Barnyardgrass [1]; 125 g ai/ha
  Barnyardgrass plant response rating: 0
Barnyardgrass [1]; 500 g ai/ha
  Barnyardgrass plant response rating: 30
Barnyardgrass [1]; [5]
  Plant response rating, Barnyardgrass: 80
[2]
  Sedge, Umbrella plant response rating: 60
Giant foxtail; [4]
  Plant response rating, Foxtail, Giant: 100
Giant foxtail; 125 g ai/ha
  Foxtail, Giant plant response rating: 10
Giant foxtail; 500 g ai/ha
  Foxtail, Giant plant response rating: 10
Giant foxtail; [5]
  Plant response rating, Foxtail, Giant: 60
Large crabgrass; [4]
  Plant response rating, Crabgrass, Large: 100
Large crabgrass; 125 g ai/ha
  Crabgrass, Large plant response rating: 10
Large crabgrass; 500 g ai/ha
  Crabgrass, Large plant response rating: 30
Large crabgrass; [5]
  Plant response rating, Crabgrass, Large: 90
Barnyardgrass [3]
  Barnyardgrass plant response rating: 70
pigweed; [4]
  Plant response rating, Pigweed: 100
pigweed; 125 g ai/ha
  Pigweed plant response rating: 50
pigweed; 500 g ai/ha
  Pigweed plant response rating: 70
pigweed; [5]
  Plant response rating, Pigweed: 100
velvetleaf; [4]
  Plant response rating, Velvetleaf: 40
velvetleaf; 125 g ai/ha
  Velvetleaf plant response rating: 10
velvetleaf; 500 g ai/ha
  Velvetleaf plant response rating: 50
velvetleaf; [5]
  Plant response rating, Velvetleaf: 0
lambsquarters; [4]
  Plant response rating, Lambsquarters: 100
lambsquarters; 125 g ai/ha
  Lambsquarters plant response rating: 20
lambsquarters; 500 g ai/ha
  Lambsquarters plant response rating: 60
lambsquarters; [5]
  Plant response rating, Lambsquarters: 60
